Measured values taken from US4332805A, “Decahydroquinolinol derivatives and methods of treating cardiac arrythmias or inducing local anaesthesia with them” (priority 1979, dated 1982).
Like-named read-outs stand apart in the source and are kept apart here.

Tests used:
[1] = arrhythmia-inducing and lethal dose in continuous venous perfusion; format: in vivo; conditions: anaesthetized dog
[2] = ventricular fibrillation provoked by chloroform or by calcium chloride; conditions: in vivo
acute toxicity [3] = conditions: mouse, in vivo, mice
[4] = hypotensive activity / myocardial contractility; conditions: in vivo
[5] = LAWSON test: protection against chloroform-induced ventricular fibrillation; format: in vivo; conditions: mice, 75 mg/kg intragastric
[6] = motor activity (spontaneous motility) / sedation; format: in vivo, mouse
[7] = protection against toxic effects of epinephrine (antiadrenergic properties); format: in vivo; conditions: mice, 50 mg/kg intragastric, 30 minutes before 3 mg/kg i.v. epinephrine
Description: Tests carried out with Compound A have shown that a dose of 50 mg/kg administered by intragastric route to mice 30 minutes before the intravenous injection of 3 mg/kg of epinephrine gave no protection against the toxic effects of this catecholamine.

convulsant dose = format: in vivo; conditions: mice per os; dog i.v.
acute toxicity [8] = conditions: rat, in vivo
Description: Acute toxicity tests were undertaken with Compound A on mice and rats.

[9] = LAWSON test: protection against chloroform-induced ventricular fibrillation; format: in vivo, mice; conditions: Mus musculus, po
Description: The arrhythmia was induced, in this test, by inhalation of chloroform until breathing stopped.
For each dose of the substance to be studied, batches of 10 female mice, each of about 20 g, were used. These mice had been fasting for 18 hours before the test. A batch of 10 animals was used as control group.
A dose of the compound to be studied was first administered by intragastric route except to the controls which only received the solvent used with the compound in question. Thirty minutes later, the animals were placed under a dome-shaped receptacle containing a high concentration of chloroform obtained by means of a strongly impregnated pad.
The animals were removed when totally asphyxiated (about 2 minutes later), the thorax was rapidly opened and the ventricular rhythm observed. The dose of the compound under study which protected 50% of the animals against ventricular fibrillation was then determined.
This protective dose is expressed as AD50 in mg/kg in the following Table. […]
Another comparative test was performed under the same conditions with
several compounds included within the scope of U.S. Pat. No. 3,882,129 at
the single dose of 100 mg/kg by intragastric route.
The following results were obtained which are expressed in percentage of protection obtained against the arrhythmic effect at the studied dose: […]

[10] = local anaesthesia, CHANCE and LOBSTEIN technique (eyelid closure after touching cornea); format: in vivo, guinea-pig
Description: In this way, the percentage of locally anaesthetized animals were determined with respect to both the dose of compound given and the length of time elapsing after administration.

Compound: NC(=O)O[C@@H]1CCN(CCCOc2ccc(F)cc2)[C@H]2CCCC[C@H]12 (relative stereo) [Compound A, 4-Carbamoyloxy-1-[3-(4-fluoro-phenoxy)-propyl]-trans-decahydroquinoline (axial form)]
- lethal dose [1]: 84.1 ± 7.1 mg/kg
- TD50 ([1]; in vivo, iv): 80.6 ± 6 mg/kg
- protection against ventricular fibrillation provoked by chloroform or by calcium chloride [2]: provides protection against ventricular fibrillation provoked by chloroform or by calcium chloride
- LD50 (acute toxicity [3]; po, intragastric): 750 mg/kg
- LD50 (acute toxicity [3]; intravenous): 42.5 mg/kg
- hypotensive activity and depression of myocardial contractility [4]: neither a hypotensive agent since its mechanism of action does not result from antiadrenergic properties nor is it a depressant of myocardial contractility
- % of protection ([5]; 30 minutes after administration): 80%
- % of protection ([5]; 60 minutes after administration): 65%
- % of protection ([5]; 120 minutes after administration): 60%
- % of protection ([5]; 180 minutes after administration): 45%
- % of protection ([5]; 240 minutes after administration): 30%
- sedative / antiadrenergic at antiarrhythmic doses ([6]; mice, 50 mg/kg intragastric): neither sedative nor antiadrenergic at antiarrhythmic doses
- depression of spontaneous motility ([6]; mice, 50 mg/kg intragastric, 30 minutes later): no depression of spontaneous motility
- motor activity ([6]; mouse): does not modify motor activity
- protection against the toxic effects of epinephrine [7]: no protection
- safety margin between effective antiarrhythmic dose and convulsant dose (convulsant dose): good safety margin
- LD50 (acute toxicity [8]; iv): 47 mg/kg
- LD50 (acute toxicity [8]; po): > 2000 mg/kg
- ED50 ([9]; 0.5 h, female mice, intragastric, 30 minutes before chloroform, salts (hydrochloride), read-out: AD50 (dose protecting 50% of the animals against ventricular fibrillation)): 45 mg/kg
- ED50 ([9]; mice, per os, read-out: Antiarrhythmic dose (LAWSON AD50 test)): 45 mg/kg
- local anaesthetic activity compared with lidocaine ([10]; guinea-pig): more active than lidocaine as a local anaesthetizing agent and exerts its effects over a longer period of time
- local anaesthesia, % of animals ([10]; guinea-pig eye, 0.1% solution, 5 minutes after administration): 58%
- local anaesthesia, % of animals protected ([10]; guinea-pig eye, 0.5% solution, 30 minutes after administration): 35%
